Data from PubChem BioAssay AID192 (DTP/NCI, 2004).
Several values for one entry are separate records, joined by “and”; a condition that tells them apart may be missing. Identical values can stand only once. Toxic doses and inconclusive results are not listed. The calls were made as follows: active = survival T/C of 150% or more; inactive = T/C below 125% in these data.

Tested on: BDF1 mice, B16 melanoma ip, median survival T/C
Test: NCI In Vivo Anticancer Drug Screen. Data for tumor model B16 Melanoma (intraperitoneal) in B6D2F1 (BDF1) mice
Details: endpoint: median survival time, higher = longer survival
Summary of the method: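 Tumor-bearing mice received test compound or vehicle. Survival or tumor size was then measured in both groups. The treated-group figure was divided by the control-group figure.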

[1] = dose: 100.0 mg/kg/injection, schedule: Q01DX009 (ip), vehicle: Klucel (hydroxypropylcellulose) (HPC)
[2] = dose: 200.0 mg/kg/injection, schedule: Q01DX009 (ip), vehicle: Klucel (hydroxypropylcellulose) (HPC)
[3] = dose: 100.0 mg/kg/injection, schedule: Q04DX003 (ip), vehicle: Klucel (hydroxypropylcellulose) (HPC)
[4] = dose: 200.0 mg/kg/injection, schedule: Q04DX003 (ip), vehicle: Klucel (hydroxypropylcellulose) (HPC)
[5] = dose: 400.0 mg/kg/injection, schedule: Q04DX003 (ip), vehicle: Klucel (hydroxypropylcellulose) (HPC)
[6] = dose: 100.0 mg/kg/injection, schedule: Q04DX003 (ip), vehicle: saline
[7] = dose: 200.0 mg/kg/injection, schedule: Q04DX003 (ip), vehicle: saline
[8] = dose: 400.0 mg/kg/injection, schedule: Q04DX003 (ip), vehicle: saline
[9] = dose: 12.5 mg/kg/injection, schedule: Q01DX009 (ip), vehicle: saline
[10] = dose: 25.0 mg/kg/injection, schedule: Q01DX009 (ip), vehicle: saline
[11] = dose: 50.0 mg/kg/injection, schedule: Q01DX009 (ip), vehicle: saline
[12] = dose: 100.0 mg/kg/injection, schedule: Q01DX009 (ip), vehicle: saline
[13] = dose: 25.0 mg/kg/injection, schedule: Q01DX009 (ip), vehicle: Klucel (hydroxypropylcellulose) (HPC)
[14] = dose: 50.0 mg/kg/injection, schedule: Q01DX009 (ip), vehicle: Klucel (hydroxypropylcellulose) (HPC)
[15] = dose: 100.0 mg/kg/injection, schedule: Q01DX009 (ip), vehicle: saline with Tween-80
[16] = dose: 200.0 mg/kg/injection, schedule: Q01DX009 (ip), vehicle: saline with Tween-80
[17] = dose: 400.0 mg/kg/injection, schedule: Q01DX009 (ip), vehicle: saline with Tween-80
[18] = dose: 200.0 mg/kg/injection, schedule: Q01DX009 (ip), vehicle: saline

Measured: T/C

C[CH2][Pb]([CH2]C)([CH2]C)[O]C(=O)c1ccc(N)cc1
inactive: dose: 0.75 mg/kg/injection, schedule: Q01DX009 (ip), vehicle: Klucel (hydroxypropylcellulose) (HPC) 111 % of control | dose: 1.5 mg/kg/injection, schedule: Q01DX009 (ip), vehicle: Klucel (hydroxypropylcellulose) (HPC) 111 % of control | dose: 3.0 mg/kg/injection, schedule: Q01DX009 (ip), vehicle: Klucel (hydroxypropylcellulose) (HPC) 108 % of control | dose: 6.0 mg/kg/injection, schedule: Q01DX009 (ip), vehicle: Klucel (hydroxypropylcellulose) (HPC) 111 % of control | dose: 12.0 mg/kg/injection, schedule: Q01DX009 (ip), vehicle: Klucel (hydroxypropylcellulose) (HPC) 105 % of control

Cc1cc2nc(-c3ccccc3O)[nH]c2cc1C
inactive: [1] 93 % of control and 94 % of control | [2] 94 % of control and 106 % of control

CN(C)N=Nc1ccnc2c(Cl)cccc12
inactive: dose: 10.8 mg/kg/injection, schedule: Q01DX009 (ip), vehicle: DMSO 101 % of control | dose: 18.0 mg/kg/injection, schedule: Q01DX009 (ip), vehicle: DMSO 103 % of control | dose: 30.0 mg/kg/injection, schedule: Q01DX009 (ip), vehicle: DMSO 101 % of control | dose: 50.0 mg/kg/injection, schedule: Q01DX009 (ip), vehicle: DMSO 99 % of control

CCCCCCCCCCCCCCCC(=O)N(CCCN(C)C)CCCN(CCCN(C)C)C(=O)CCCCCCCCCCCCCCC
inactive: dose: 1.56 mg/kg/injection, schedule: Q01DX009 (ip), vehicle: water 106 % of control | dose: 3.13 mg/kg/injection, schedule: Q01DX009 (ip), vehicle: water 101 % of control | dose: 6.25 mg/kg/injection, schedule: Q01DX009 (ip), vehicle: water 92 % of control | dose: 12.5 mg/kg/injection, schedule: Q01DX009 (ip), vehicle: water 87 % of control

O=C1CCCNc2ccccc21
inactive: dose: 25.0 mg/kg/injection, schedule: Q04DX003 (ip), vehicle: saline with Tween-80 100 % of control | dose: 50.0 mg/kg/injection, schedule: Q04DX003 (ip), vehicle: saline with Tween-80 102 % of control | dose: 75.0 mg/kg/injection, schedule: Q04DX003 (ip), vehicle: saline with Tween-80 114 % of control | dose: 100.0 mg/kg/injection, schedule: Q04DX003 (ip), vehicle: saline with Tween-80 101 % of control | dose: 200.0 mg/kg/injection, schedule: Q04DX003 (ip), vehicle: saline with Tween-80 103 % of control | dose: 400.0 mg/kg/injection, schedule: Q04DX003 (ip), vehicle: saline with Tween-80 90 % of control

COc1ccccc1NC(=O)Nc1ccc(F)cc1
inactive: [3] 95 % of control | [4] 95 % of control | [5] 89 % of control

COC(=O)C(=O)[C@@H](O)[C@H](O)[C@@H](O)CO
inactive: [3] 94 % of control | [4] 94 % of control | [5] 100 % of control

O=C(O)C1C2CC(O)C(C2)C1C(=O)O (centres undefined)
inactive: [6] 100 % of control and 94 % of control | [7] 100 % of control and 91 % of control | [8] 94 % of control

O=c1[nH]c(=O)c2nc(-c3cccnc3)cnc2[nH]1
inactive: [9] 104 % of control | [10] 93 % of control | [11] 97 % of control | [12] 89 % of control

CC[CH2][Pb]([Cl])([CH2]CC)[CH2]CC
inactive: dose: 0.09 mg/kg/injection, schedule: Q01DX009 (ip), vehicle: DMSO 100 % of control | dose: 0.18 mg/kg/injection, schedule: Q01DX009 (ip), vehicle: DMSO 92 % of control | dose: 0.37 mg/kg/injection, schedule: Q01DX009 (ip), vehicle: DMSO 95 % of control | dose: 0.75 mg/kg/injection, schedule: Q01DX009 (ip), vehicle: DMSO 95 % of control | dose: 1.5 mg/kg/injection, schedule: Q01DX009 (ip), vehicle: DMSO 92 % of control

CC(C)c1ccc(C(c2c(O)c3ccccc3oc2=O)c2c(O)c3ccccc3oc2=O)cc1
inactive: dose: 12.5 mg/kg/injection, schedule: Q01DX009 (ip), vehicle: Klucel (hydroxypropylcellulose) (HPC) 99 % of control | [13] 97 % of control | [14] 107 % of control

COc1cc(OC)c2c(O)c3c(c(-c4ccc5cc6c(c(O)c5c4O)C(=O)CC(C)(O)C6)c2c1)CC(C)OC3C (centres undefined)
inactive: dose: 0.5 mg/kg/injection, schedule: Q01DX009 (ip), vehicle: Klucel (hydroxypropylcellulose) (HPC) 94 % of control | dose: 1.0 mg/kg/injection, schedule: Q01DX009 (ip), vehicle: Klucel (hydroxypropylcellulose) (HPC) 102 % of control | dose: 2.0 mg/kg/injection, schedule: Q01DX009 (ip), vehicle: Klucel (hydroxypropylcellulose) (HPC) 111 % of control

c1ccc(-c2nc3ccc4ccccc4c3nc2-c2ccccc2)cc1
inactive: [15] 100 % of control | [16] 118 % of control | [17] 95 % of control

[Cl][Hg][CH]1CCC2OC1CC[CH]2[Hg][Cl] (centres undefined)
inactive: dose: 6.25 mg/kg/injection, schedule: Q01DX009 (ip), vehicle: saline with Tween-80 104 % of control

O=[N+]([O-])c1cc(Br)cc(Br)c1S(=O)(=O)O
inactive: [6] 100 % of control | [7] 108 % of control | [8] 104 % of control

Cc1c2cc[n+](C)c(C)c2cc2c1[nH]c1ccc(O)cc12
inactive: dose: 2.5 mg/kg/injection, schedule: Q04DX003 (ip), vehicle: water 117 % of control and 120 % of control
active: dose: 10.0 mg/kg/injection, schedule: Q04DX003 (ip), vehicle: water 150 % of control

C1=C(c2ccccc2)CCC1
inactive: [11] 97 % of control | [12] 88 % of control

CC(CO)NC(=O)C1C=C2c3cccc4[nH]cc(c34)CC2N(C)C1 (centres undefined)
inactive: [10] 91 % of control | [11] 91 % of control | [18] 86 % of control

CCCCCCCCOC(=O)Nc1ccc(OCC)cc1
inactive: dose: 1.5 mg/kg/injection, schedule: Q01DX009 (ip), vehicle: saline with Tween-80 107 % of control | dose: 3.0 mg/kg/injection, schedule: Q01DX009 (ip), vehicle: saline with Tween-80 96 % of control | dose: 6.0 mg/kg/injection, schedule: Q01DX009 (ip), vehicle: saline with Tween-80 96 % of control

CCOc1ccccc1NC(=O)Nc1ccccc1Cl
inactive: [15] 103 % of control | [16] 94 % of control | [17] 89 % of control

CN(C)CCOc1ccccc1Cc1ccccc1
inactive: [9] 121 % of control | [10] 106 % of control and 107 % of control | [11] 95 % of control and 100 % of control | [12] 105 % of control | [18] 94 % of control

OCc1ccccc1NCc1ccccc1
inactive: dose: 100.0 mg/kg/injection, schedule: Q01DX009 (ip), vehicle: other 91 % of control and 109 % of control | dose: 200.0 mg/kg/injection, schedule: Q01DX009 (ip), vehicle: other 100 % of control | dose: 400.0 mg/kg/injection, schedule: Q01DX009 (ip), vehicle: other 95 % of control and 98 % of control

COc1ccc(NC(=O)Oc2ccc(OC)cc2)cc1
inactive: [1] 90 % of control | [2] 93 % of control | dose: 400.0 mg/kg/injection, schedule: Q01DX009 (ip), vehicle: Klucel (hydroxypropylcellulose) (HPC) 93 % of control

CC(=O)OCC12CCC(C)=CC1OC1C(OS(C)(=O)=O)C(=O)C2(C)C12CO2 (centres undefined)
inactive: dose: 0.5 mg/kg/injection, schedule: Q01DX009 (ip), vehicle: saline 101 % of control | dose: 1.0 mg/kg/injection, schedule: Q01DX009 (ip), vehicle: saline 95 % of control | dose: 2.0 mg/kg/injection, schedule: Q01DX009 (ip), vehicle: saline 104 % of control | dose: 4.0 mg/kg/injection, schedule: Q01DX009 (ip), vehicle: saline 88 % of control

Cc1cc(=O)[nH]c(N/N=C/c2cc(Cl)ccc2O)n1
inactive: dose: 12.5 mg/kg/injection, schedule: Q01DX009 (ip), vehicle: saline with Tween-80 93 % of control | dose: 25.0 mg/kg/injection, schedule: Q01DX009 (ip), vehicle: saline with Tween-80 90 % of control | dose: 50.0 mg/kg/injection, schedule: Q01DX009 (ip), vehicle: saline with Tween-80 86 % of control

COc1cc2cccc(OC)c(=O)c2c(O)c1OC
inactive: [13] 97 % of control | [14] 105 % of control | [1] 97 % of control

CNC1C(O)C(NC)C2OC3(O)C(=O)CC(C)OC3OC2C1O (centres undefined)
inactive: [10] 95 % of control | [11] 100 % of control | [12] 109 % of control
